For data set [1], the target named is T1, NaV1.6 (Homo sapiens (Human), UniProt Q9UQD0). Description: Sodium Influx Assay (Flux), NaV1.6.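 Further: Tetracycline-induced cells, compounds applied for one hour at room temperature with modulators holding channels open, IC50 from percent inhibition of sodium influx.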 It counts as cell-based. To be noted: Trex HEK293 cells, ANG2 dye, inactivated state.
The target of data set [2] is T1, NaV1.6. Description: Electrophysiological Assay (EP), patch voltage clamp, NaV1.6.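 Further: sodium current recorded at ambient temperature, channels held inactivated then briefly repolarized to −150 mV for 20 ms before a test pulse, control currents in 0.5% DMSO.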 It counts as cell-based. The note with it: HEK-293 cells, whole-cell patch clamp. (In general: The patch-clamp technique gives a direct electrical read-out from membranes.)
The target in data set [3] is T2, NaV1.1 (Homo sapiens (Human), UniProt P35498). Briefly: Sodium Influx Assay (Flux), NaV1.1.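 Further: channels co-expressed with human β1 subunit and held open by modulators, cells exposed to compounds for one hour at room temperature, IC50 from percent inhibition of influx.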 It counts as cell-based. To be noted: Trex HEK293 cells, ANG2 dye, inactivated state.
Data set [4] concerns the target T2, NaV1.1. Briefly: Electrophysiological Assay (EP), patch voltage clamp, NaV1.1.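 Further: sodium current block measured at ambient temperature, holding at fully inactivating potential, 20 ms repolarization to −150 mV before test pulse, versus 0.5% DMSO control currents.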 To be noted: HEK-293 cells, whole-cell patch clamp. Format: cell-based.
In another data set the target is NaV1.5 (Homo sapiens (Human), UniProt Q14524). Description: Sodium Influx Assay (Flux), NaV1.5.
Sequence of NaV1.5 (Q14524 other isoform, or with tags, fused parts or gaps): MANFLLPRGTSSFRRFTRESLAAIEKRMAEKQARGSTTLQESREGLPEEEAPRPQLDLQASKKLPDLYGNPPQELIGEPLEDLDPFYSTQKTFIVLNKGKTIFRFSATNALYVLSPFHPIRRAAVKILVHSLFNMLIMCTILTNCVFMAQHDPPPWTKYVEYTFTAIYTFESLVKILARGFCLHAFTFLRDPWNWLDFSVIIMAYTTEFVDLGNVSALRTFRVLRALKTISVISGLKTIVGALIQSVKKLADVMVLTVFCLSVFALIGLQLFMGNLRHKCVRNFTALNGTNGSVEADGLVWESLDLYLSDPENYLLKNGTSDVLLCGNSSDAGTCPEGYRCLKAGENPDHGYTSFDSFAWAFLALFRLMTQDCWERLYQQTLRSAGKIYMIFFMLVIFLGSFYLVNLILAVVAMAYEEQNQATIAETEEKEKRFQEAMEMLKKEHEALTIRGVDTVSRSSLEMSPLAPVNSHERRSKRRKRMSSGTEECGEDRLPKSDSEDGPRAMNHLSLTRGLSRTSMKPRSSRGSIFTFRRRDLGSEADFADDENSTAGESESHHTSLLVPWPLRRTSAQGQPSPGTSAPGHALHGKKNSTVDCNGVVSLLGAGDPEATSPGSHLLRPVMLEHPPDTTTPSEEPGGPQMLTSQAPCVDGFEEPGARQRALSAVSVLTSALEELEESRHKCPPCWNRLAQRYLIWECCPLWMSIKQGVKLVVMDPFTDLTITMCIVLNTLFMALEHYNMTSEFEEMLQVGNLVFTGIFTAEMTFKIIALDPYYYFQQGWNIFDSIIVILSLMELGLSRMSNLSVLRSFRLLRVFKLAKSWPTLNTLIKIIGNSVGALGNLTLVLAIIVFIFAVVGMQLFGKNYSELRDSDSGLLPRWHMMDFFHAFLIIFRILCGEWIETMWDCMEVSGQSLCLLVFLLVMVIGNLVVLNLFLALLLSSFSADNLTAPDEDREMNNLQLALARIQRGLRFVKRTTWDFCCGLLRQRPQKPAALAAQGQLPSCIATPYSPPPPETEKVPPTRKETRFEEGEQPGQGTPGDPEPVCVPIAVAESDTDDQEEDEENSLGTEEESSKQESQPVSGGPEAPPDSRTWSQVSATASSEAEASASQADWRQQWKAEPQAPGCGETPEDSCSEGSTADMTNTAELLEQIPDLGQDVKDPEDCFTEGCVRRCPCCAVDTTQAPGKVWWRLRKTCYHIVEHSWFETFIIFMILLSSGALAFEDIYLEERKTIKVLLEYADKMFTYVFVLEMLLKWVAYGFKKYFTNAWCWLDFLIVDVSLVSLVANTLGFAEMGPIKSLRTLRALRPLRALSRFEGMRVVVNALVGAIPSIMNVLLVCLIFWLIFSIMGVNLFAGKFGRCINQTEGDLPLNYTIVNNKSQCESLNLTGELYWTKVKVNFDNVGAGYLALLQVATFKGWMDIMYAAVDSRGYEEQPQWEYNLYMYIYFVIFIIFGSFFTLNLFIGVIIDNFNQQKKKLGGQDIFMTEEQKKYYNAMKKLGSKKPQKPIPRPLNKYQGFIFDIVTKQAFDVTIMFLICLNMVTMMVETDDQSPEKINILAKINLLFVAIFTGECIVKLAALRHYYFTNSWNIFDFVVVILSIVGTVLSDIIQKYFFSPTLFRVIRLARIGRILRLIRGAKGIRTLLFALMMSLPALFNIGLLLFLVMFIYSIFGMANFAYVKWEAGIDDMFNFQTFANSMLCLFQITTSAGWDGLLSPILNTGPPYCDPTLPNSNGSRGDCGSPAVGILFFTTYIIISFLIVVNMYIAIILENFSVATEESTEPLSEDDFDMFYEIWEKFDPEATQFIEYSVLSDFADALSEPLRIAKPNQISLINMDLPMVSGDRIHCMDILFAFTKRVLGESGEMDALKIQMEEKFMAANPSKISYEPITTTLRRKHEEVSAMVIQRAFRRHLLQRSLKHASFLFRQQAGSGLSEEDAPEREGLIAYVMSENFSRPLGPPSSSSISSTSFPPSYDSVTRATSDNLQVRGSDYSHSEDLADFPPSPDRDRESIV
[5] abbreviates: read-out: Flux NaV1.5 IC50, Trex HEK293 cells, ANG2 dye, inactivated state.

pIC50: −log10 of the molar value. Where a name gives a salt, the structure may show the parent alone. Read-outs that look alike come from different tables or passages of the source. A value given as a limit tells only on which side of the number the result lay.

T1 sequence (Q9UQD0 whole entry): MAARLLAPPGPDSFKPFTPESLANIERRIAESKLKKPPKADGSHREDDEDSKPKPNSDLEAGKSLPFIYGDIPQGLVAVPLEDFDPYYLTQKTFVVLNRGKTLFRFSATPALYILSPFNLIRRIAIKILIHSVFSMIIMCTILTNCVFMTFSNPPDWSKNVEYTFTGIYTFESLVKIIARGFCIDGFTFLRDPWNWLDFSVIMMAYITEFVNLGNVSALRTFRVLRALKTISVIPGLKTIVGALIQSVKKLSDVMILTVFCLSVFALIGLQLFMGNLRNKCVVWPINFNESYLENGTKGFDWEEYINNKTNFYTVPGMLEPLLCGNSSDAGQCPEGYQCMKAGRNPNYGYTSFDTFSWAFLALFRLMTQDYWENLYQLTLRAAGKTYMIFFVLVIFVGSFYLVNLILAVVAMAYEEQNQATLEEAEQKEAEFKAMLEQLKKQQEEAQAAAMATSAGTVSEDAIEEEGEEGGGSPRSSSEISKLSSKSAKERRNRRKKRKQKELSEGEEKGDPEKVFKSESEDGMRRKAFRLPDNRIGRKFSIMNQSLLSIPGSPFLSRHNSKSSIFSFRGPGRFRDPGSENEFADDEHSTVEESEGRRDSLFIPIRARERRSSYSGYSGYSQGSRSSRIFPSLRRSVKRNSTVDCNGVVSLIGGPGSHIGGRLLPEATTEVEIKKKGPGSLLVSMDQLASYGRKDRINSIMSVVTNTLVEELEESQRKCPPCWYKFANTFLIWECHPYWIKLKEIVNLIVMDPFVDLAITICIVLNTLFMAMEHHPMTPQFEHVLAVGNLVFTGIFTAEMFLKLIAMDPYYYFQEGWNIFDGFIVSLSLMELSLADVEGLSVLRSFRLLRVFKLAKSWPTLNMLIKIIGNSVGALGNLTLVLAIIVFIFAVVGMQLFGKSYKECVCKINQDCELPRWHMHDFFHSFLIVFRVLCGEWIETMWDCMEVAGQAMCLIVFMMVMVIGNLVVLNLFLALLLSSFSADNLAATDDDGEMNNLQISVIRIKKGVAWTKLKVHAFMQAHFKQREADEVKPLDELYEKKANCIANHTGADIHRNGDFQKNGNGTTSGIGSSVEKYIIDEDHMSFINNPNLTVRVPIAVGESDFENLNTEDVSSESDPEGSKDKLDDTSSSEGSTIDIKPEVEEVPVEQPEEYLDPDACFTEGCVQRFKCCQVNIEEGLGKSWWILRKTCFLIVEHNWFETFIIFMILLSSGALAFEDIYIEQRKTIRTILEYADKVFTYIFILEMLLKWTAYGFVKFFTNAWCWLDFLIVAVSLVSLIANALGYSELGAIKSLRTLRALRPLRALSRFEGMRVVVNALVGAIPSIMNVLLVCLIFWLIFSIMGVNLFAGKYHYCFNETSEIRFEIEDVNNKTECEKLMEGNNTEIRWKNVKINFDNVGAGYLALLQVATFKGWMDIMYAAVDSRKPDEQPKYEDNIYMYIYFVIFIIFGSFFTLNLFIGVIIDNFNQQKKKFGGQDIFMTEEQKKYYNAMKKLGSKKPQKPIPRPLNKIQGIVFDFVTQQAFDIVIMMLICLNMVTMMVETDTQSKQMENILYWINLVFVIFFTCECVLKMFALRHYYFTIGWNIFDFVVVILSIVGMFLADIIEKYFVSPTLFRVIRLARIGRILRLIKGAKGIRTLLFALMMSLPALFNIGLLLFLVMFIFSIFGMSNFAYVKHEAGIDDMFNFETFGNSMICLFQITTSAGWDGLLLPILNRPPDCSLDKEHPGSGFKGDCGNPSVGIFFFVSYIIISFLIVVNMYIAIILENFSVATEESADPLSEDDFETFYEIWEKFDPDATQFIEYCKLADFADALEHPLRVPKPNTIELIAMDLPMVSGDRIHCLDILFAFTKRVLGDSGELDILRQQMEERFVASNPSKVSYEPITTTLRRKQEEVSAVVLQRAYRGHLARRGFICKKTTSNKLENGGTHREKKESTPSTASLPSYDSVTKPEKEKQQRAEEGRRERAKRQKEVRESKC

As to `O=S(=O)(Nc1cscn1)c1c(F)cc(NCc2c(F)cccc2CN2CC3(CCO3)C2)cc1F` [Example 156, 4-((2-((1-oxa-6-azaspiro[3.3]heptan-6-yl)methyl)-6-fluorobenzyl)amino)-2,6-difluoro-N-(thiazol-4-yl)benzenesulfonamide formate], the pIC50 was 6.84 against NaV1.6 [1]; 7.66 against NaV1.6 [2]; 4.61 against NaV1.1 [3]; 5.00 against NaV1.1 [4]; 4.52 on NaV1.5 (setting [5]).

Take `C[C@H](Nc1ccc(S(=O)(=O)Nc2ccncn2)c(F)c1Cl)c1ccccc1Cl` [Example 191, (S)-3-chloro-4-((1-(2-chlorophenyl)ethyl)amino)-2-fluoro-N-(pyrimidin-4-yl)benzenesulfonamide]: the pIC50 at NaV1.6 [1] is 6.61; against NaV1.6 [2], 6.95; against NaV1.1 [3] it was 4.74; against NaV1.1 [4] it was 5.00; at NaV1.5 (setting [5]) it was 4.70.

Take `O=S(=O)(Nc1cscn1)c1ccc(NCc2c(F)cccc2CN2CCC2)c(Cl)c1F` [Example 192, 4-((2-(azetidin-1-ylmethyl)-6-fluorobenzyl)amino)-3-chloro-2-fluoro-N-(thiazol-4-yl)benzenesulfonamide formate]: the pIC50 was 7.14 at NaV1.6 [1]; 7.82 on NaV1.6 [2]; 4.79 against NaV1.1 [3]; 5.00 against NaV1.1 [4]; 5.07 at NaV1.5 (setting [5]).

Turning to `O=S(=O)(Nc1cscn1)c1c(F)cc(NCc2c(F)cccc2CN2CC(F)C2)cc1F` [Example 194, 2,6-difluoro-4-((2-fluoro-6-((3-fluoroazetidin-1-yl)methyl)benzyl)amino)-N-(thiazol-4-yl)benzenesulfonamide formate], the pIC50 against NaV1.6 [1] was 6.64; against NaV1.6 [2], 7.37; at NaV1.1 [3], 5.07; against NaV1.1 [4], 5.00; on NaV1.5 (setting [5]), 4.52.

For `C[C@H](Nc1cc(F)c(S(=O)(=O)Nc2ccncn2)c(F)c1)c1cc(Cl)ccc1F` [Example 206, (S)-4-((1-(5-chloro-2-fluorophenyl)ethyl)amino)-2,6-difluoro-N-(pyrimidin-4-yl)benzenesulfonamide 2,2,2-trifluoroacetate], the pIC50 was 6.35 against NaV1.6 [1]; 7.12 on NaV1.6 [2]; 5.15 on NaV1.1 [3]; 5.00 against NaV1.1 [4]; 4.52 on NaV1.5 (setting [5]).

As for `C[C@H](Nc1cc(F)c(S(=O)(=O)Nc2cscn2)c(F)c1)c1cc(Cl)ccc1F` [Example 207, (S)-4-((1-(5-chloro-2-fluorophenyl)ethyl)amino)-2,6-difluoro-N-(thiazol-4-yl)benzenesulfonamide 2,2,2-trifluoroacetate], the pIC50 at NaV1.6 [1] is 6.38; on NaV1.6 [2] it was 6.92; against NaV1.1 [3] it was 5.36; against NaV1.1 [4] it was 5.09; on NaV1.5 (setting [5]), 5.02.

With `COc1cccc(CN2CCC2)c1CNc1cc(F)c(S(=O)(=O)Nc2cscn2)c(F)c1` [Example 209, 4-((2-(azetidin-1-ylmethyl)-6-methoxybenzyl)amino)-2,6-difluoro-N-(thiazol-4-yl)benzenesulfonamide 2,2,2-trifluoroacetate], the pIC50 on NaV1.6 [1] is 6.50; on NaV1.6 [2], 7.12; against NaV1.1 [3], 4.56; against NaV1.1 [4], 5.00; at NaV1.5 (setting [5]), 4.52.

As for `O=S(=O)(Nc1cscn1)c1cc(Cl)c(NC2(c3cc(F)ccc3F)CC2)cc1F` [Example 225, 5-chloro-4-((1-(2,5-difluorophenyl)cyclopropyl)amino)-2-fluoro-N-(thiazol-4-yl)benzenesulfonamide], the pIC50 is 5.70 against NaV1.6 [1]; 6.13 on NaV1.6 [2]; 5.01 against NaV1.1 [3]; 5.00 against NaV1.1 [4]; 5.35 on NaV1.5 (setting [5]).

On to `C[C@H](Nc1cc(F)c(S(=O)(=O)Nc2cnccn2)cc1Cl)c1cc(Cl)ccc1F` [Example 243], for which the pIC50 is 5.06 at NaV1.6 [1]; 5.20 against NaV1.6 [2]; ≤ 4.52 at NaV1.1 [3]; 5.00 against NaV1.1 [4]; ≤ 4.52 at NaV1.5.

For `O=S(=O)(Nc1cscn1)c1cc(Cl)c(NCc2c(F)cccc2CN2CC(F)C2)cc1F` [Example 247, 5-chloro-2-fluoro-4-((2-fluoro-6-((3-fluoroazetidin-1-yl)methyl)benzyl)amino)-N-(thiazol-4-yl)benzenesulfonamide], the pIC50 at NaV1.6 [1] is 5.21; against NaV1.6 [2], 6.39; at NaV1.1 [3] it was 4.60; at NaV1.1 [4], 5.00; at NaV1.5 (setting [5]) it was 4.52.

As to `CC[C@H](Nc1cc(F)c(S(=O)(=O)Nc2ncc(F)s2)cc1Cl)c1ccccc1` [Example 265, (S)-5-chloro-2-fluoro-N-(5-fluorothiazol-2-yl)-4-((1-phenylpropyl)amino)benzenesulfonamide], the pIC50 against NaV1.6 [1] was 6.71; against NaV1.6 [2] it was 7.74; on NaV1.1 [3], 6.10; on NaV1.1 [4], 7.30; at NaV1.5 (setting [5]) it was 4.90.

Regarding `C[C@H](Nc1cc(F)c(S(=O)(=O)Nc2ncc(F)s2)cc1Cl)c1ccccc1F` [Example 266, (S)-5-chloro-2-fluoro-4-((1-(2-fluorophenyl)ethyl)amino)-N-(5-fluorothiazol-2-yl)benzenesulfonamide], the pIC50 against NaV1.6 [1] is 6.93; on NaV1.6 [2] it was 7.82; on NaV1.1 [3], 6.12; on NaV1.1 [4], 6.88; at NaV1.5 (setting [5]) it was 5.26.

Consider `C[C@H](Nc1cc(F)c(S(=O)(=O)Nc2nccs2)cc1Cl)c1cc(F)ccc1F` [Example 268, (S)-5-chloro-4-((1-(2,5-difluorophenyl)ethyl)amino)-2-fluoro-N-(thiazol-2-yl)benzenesulfonamide], for which the pIC50 was 7.46 on NaV1.6 [1]; 8.00 at NaV1.6 [2]; 6.41 against NaV1.1 [3]; 6.48 against NaV1.1 [4]; 5.43 on NaV1.5 (setting [5]).

On to `O=S(=O)(Nc1ccncn1)c1cc(Cl)c(N[C@H](c2cc(Cl)ccc2F)C(F)(F)F)cc1F` [Example 270, (R)-5-chloro-4-((1-(5-chloro-2-fluorophenyl)-2,2,2-trifluoroethyl)amino)-2-fluoro-N-(pyrimidin-4-yl)benzenesulfonamide], for which the pIC50 is 6.67 against NaV1.6 [1]; 7.74 against NaV1.6 [2]; 4.90 at NaV1.1 [3]; 5.00 at NaV1.1 [4]; 4.96 on NaV1.5 (setting [5]).

In the case of `C[C@H](Nc1ccc(S(=O)(=O)Nc2ccncn2)cc1C(F)(F)F)c1cc(F)ccc1F` [Example 273, (S)-4-((1-(2,5-difluorophenyl)ethyl)amino)-N-(pyrimidin-4-yl)-3-(trifluoromethyl)benzenesulfonamide], the pIC50 against NaV1.6 [1] was 6.05; on NaV1.6 [2], 6.91; on NaV1.1 [3], 4.52; at NaV1.1 [4] it was 5.00; at NaV1.5 (setting [5]), 4.52.

Consider `Cc1cc(S(=O)(=O)Nc2ccncn2)c(F)cc1N[C@@H](C)c1cc(Cl)ccc1F` [Example 275, (S)-4-((1-(5-chloro-2-fluorophenyl)ethyl)amino)-2-fluoro-5-methyl-N-(pyrimidin-4-yl)benzenesulfonamide], for which the pIC50 was 6.76 on NaV1.6 [1]; 7.60 on NaV1.6 [2]; 5.27 against NaV1.1 [3]; 5.31 against NaV1.1 [4]; 4.52 on NaV1.5 (setting [5]).

Take `C[C@H](Nc1cc(F)c(S(=O)(=O)Nc2ncco2)cc1Cl)c1cc(F)ccc1F` [Example 287, (S)-5-Chloro-4-((1-(2,5-difluorophenyl)ethyl)amino)-2-fluoro-N-(oxazol-2-yl)benzenesulfonamide]: the negative-log IC50 (pIC50) is 5.82 against NaV1.6 [1]; 6.33 on NaV1.6 [2]; 4.60 against NaV1.1 [3]; 5.00 on NaV1.1 [4]; 4.52 at NaV1.5 (setting [5]).

For the compound `O=S(=O)(Nc1cscn1)c1cc(Cl)c(NCc2c(F)ccc(F)c2CN2CCC2)cc1F` [Example 288, 4-((2-(Azetidin-1-ylmethyl)-3,6-difluorobenzyl)amino)-5-chloro-2-fluoro-N-(thiazol-4-yl)benzenesulfonamide hydrochloride], the pIC50 against NaV1.6 [1] was 6.74; against NaV1.6 [2], 7.44; against NaV1.1 [3], 4.93; against NaV1.1 [4], 5.00; at NaV1.5 (setting [5]), 4.75.

In the case of `O=S(=O)(Nc1cscn1)c1c(F)cc(NCc2c(Cl)cccc2CN2CCC2)cc1F` [Example 290, 4-((2-(azetidin-1-ylmethyl)-6-chlorobenzyl)amino)-2,6-difluoro-N-(thiazol-4-yl)benzenesulfonamide 2,2,2-trifluoroacetate], the pIC50 on NaV1.6 [1] was 7.00; at NaV1.6 [2], 7.96; against NaV1.1 [3], 5.22; at NaV1.1 [4], 5.00; on NaV1.5 (setting [5]), 4.60.

As for `O=S(=O)(Nc1cscn1)c1cc(Cl)c(NCc2c(F)ccc(F)c2CO)cc1F` [Example 293, 5-Chloro-4-((3,6-difluoro-2-(hydroxymethyl)benzyl)amino)-2-fluoro-N-(thiazol-4-yl)benzenesulfonamide], the negative-log IC50 (pIC50) against NaV1.6 [1] is 6.37; against NaV1.6 [2] it was 6.69; at NaV1.1 [3], 4.90; on NaV1.1 [4], 5.00; at NaV1.5 (setting [5]) it was 4.52.

`O=S(=O)(Nc1cscn1)c1c(F)cc(NCc2c(Cl)cccc2CN2CC3(COC3)C2)cc1F` [Example 295, 4-((2-((2-oxa-6-azaspiro[3.3]heptan-6-yl)methyl)-6-chlorobenzyl)amino)-2,6-difluoro-N-(thiazol-4-yl)benzenesulfonamide formate]: the pIC50 was 6.42 at NaV1.6 [1]; 7.38 against NaV1.6 [2]; 4.92 against NaV1.1 [3]; 5.00 on NaV1.1 [4]; 4.52 at NaV1.5 (setting [5]).

By pIC50 is commonly meant the IC50 on a negative log10 scale, so that one unit is a factor of ten.
